Test results reported in paper PMC11314295, “Discovery of Curcuminoids as Pancreatic Lipase Inhibitors from Medicine-and-Food Homology Plants” (Nutrients, 2024).
Values after ≈ are worked out from the molar mass of the structure shown. “Also recorded” adds a separate entry of the source.

Tests used:
pancreatic lipase [1] = target: T1, pancreatic lipase (Sus scrofa, UniProt P00591); assay: Circular dichroism measurement of secondary structure; design: species or system porcine; conditions: for β-Turn (%) of pancreatic lipase / α-Helix (%) of pancreatic lipase / β-Sheet (%) of pancreatic lipase / Random Coil (%) of pancreatic lipase: lipase:compound molar ratio 1:1, 37 °C, 5 min; for β-Turn (%) of pancreatic lipase: lipase alone 14.8; for α-Helix (%) of pancreatic lipase: lipase alone 17.7; for β-Sheet (%) of pancreatic lipase: lipase alone 25.4; for decrease of β-sheet of pancreatic lipase / increase of α-helix content of pancreatic lipase: relative to pancreatic lipase alone; for Random Coil (%) of pancreatic lipase: lipase alone 42.1
T1 sequence (P00591 1-450): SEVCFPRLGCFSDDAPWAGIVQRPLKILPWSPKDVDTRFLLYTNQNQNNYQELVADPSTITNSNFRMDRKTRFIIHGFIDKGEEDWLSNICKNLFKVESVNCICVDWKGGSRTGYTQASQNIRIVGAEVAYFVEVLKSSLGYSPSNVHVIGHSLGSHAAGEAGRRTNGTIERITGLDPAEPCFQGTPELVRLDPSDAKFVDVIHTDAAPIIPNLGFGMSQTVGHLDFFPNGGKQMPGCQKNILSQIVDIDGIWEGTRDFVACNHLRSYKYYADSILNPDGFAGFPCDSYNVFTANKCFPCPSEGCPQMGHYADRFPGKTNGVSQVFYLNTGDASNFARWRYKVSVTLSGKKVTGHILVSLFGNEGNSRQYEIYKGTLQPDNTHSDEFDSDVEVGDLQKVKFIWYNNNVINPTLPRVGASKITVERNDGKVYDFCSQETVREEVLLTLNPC

pancreatic lipase [2] = target: T1, pancreatic lipase; assay: Fluorescence spectrometry (tryptophan fluorescence quenching, Stern-Volmer); conditions: for ΔS (entropy change) / ΔH (enthalpy): Van't Hoff, 298 and 310 K
pancreatic lipase [3] = target: T1, pancreatic lipase; assay: Enzyme inhibition kinetics (Lineweaver-Burk analysis); format: biochemical, porcine; conditions: for inhibition type: Lineweaver-Burk plots, Vmax unchanged; for reversibility of inhibition: plots of v versus enzyme concentration
pancreatic lipase [4] = conditions: cited from earlier work
pancreatic lipase [5] = target: T1, pancreatic lipase; assay: Affinity screening by ultrafiltration coupled with HPLC; format: binding, porcine; conditions: from change of HPLC peak area at 425 nm, turmeric extract, versus heat-inactivated enzyme
[6] = target: T2, pancreatic lipase from porcine pancreas type II (Sus scrofa, UniProt P00591); assay: Pancreatic lipase inhibition in vitro (p-nitrophenyl butyrate hydrolysis, absorbance 410 nm); format: biochemical; conditions: curcuminoid chemical standards
T2 sequence (P00591 1-450): T1 sequence (P00591 1-450)

| SMILES | β-Turn (%) of pancreatic lipase (pancreatic lipase [1]) [%] | α-Helix (%) of pancreatic lipase (pancreatic lipase [1]) [%] | β-Sheet (%) of pancreatic lipase (pancreatic lipase [1]) [%] | decrease of β-sheet of pancreatic lipase (pancreatic lipase [1]) [%] | Ka (binding constant), bound stated (pancreatic lipase [2]) [L/mol] | binding sites (pancreatic lipase [2]) | Kq (fluorescence-quenching rate constant) (pancreatic lipase [2]; 298 K) | n (binding sites) (pancreatic lipase [2]; 298 K) | ΔG (free energy) (pancreatic lipase [2]; 298 K) [kcal/mol] | ΔG (free energy) (pancreatic lipase [2]; 310 K) [kcal/mol] | ΔS (entropy change) (pancreatic lipase [2]) [J·mol^−1·K] | inhibition type (pancreatic lipase [3]) | reversibility of inhibition (pancreatic lipase [3]) | Random Coil (%) of pancreatic lipase (pancreatic lipase [1]) [%] | increase of α-helix content of pancreatic lipase (pancreatic lipase [1]) [%] | binding rate to pancreatic lipase (pancreatic lipase [5]) [%] | Kq, compared with maximum dynamic quenching constant (pancreatic lipase [2]) [M⁻¹ s⁻¹] | Kq (fluorescence-quenching rate constant) (pancreatic lipase [2]; 310 K) | n (binding sites) (pancreatic lipase [2]; 310 K) | ΔH (enthalpy) (pancreatic lipase [2]) [kcal/mol] | other results |
| --- | --- | --- | --- | --- | --- | --- | --- | --- | --- | --- | --- | --- | --- | --- | --- | --- | --- | --- | --- | --- | --- |
| O=C(/C=C/c1ccc(O)cc1)CC(=O)/C=C/c1ccc(O)cc1 [bisdemethoxycurcumin, Bisdemethoxycurcumin] | 15.9 | 21.3 | 21.7 | 14.57 | > 10000 | ~1 | 1.6 ± 0.07 ×10^12 L·mol^−1·s^−1 | 1.13 ± 0.03 | -5.476 ± 0.0574 | -5.98 ± 0.0359 | −14.33 ± 0.14 | competitive inhibitors; also recorded: reversible competitive inhibition | reversible | – | – | – | – | – | – | – | – |
| C=C(C)[C@@H]1CC[C@]2(C(=O)O[C@@H]3O[C@H](CO[C@@H]4O[C@H](CO)[C@@H](O[C@@H]5O[C@@H](C)[C@H](O)[C@@H](O)[C@H]5O)[C@H](O)[C@H]4O)[C@@H](O)[C@H](O)[C@H]3O)CC[C@]3(C)[C@H](C[C@H]4OC(=O)C[C@@H](O)[C@]5(C)[C@@H]4[C@@]3(C)CC[C@H]5C(=C)C)[C@@H]12 [chiisanoside] | – | – | – | – | – | – | – | – | – | – | – | – | – | – | – | – | – | – | – | – | IC50 (pancreatic lipase [4]): 740 µg/mL (≈ 775 µM) |
| COc1cc(/C=C/C(=O)CC(=O)/C=C/c2ccc(O)c(OC)c2)ccc1O [curcumin, Curcumin] | 15.7 | 34.3 | 15.3 | 39.76 | > 10000 | ~1 | 1.94 ± 0.10 ×10^12 L·mol^−1·s^−1 | 1.14 ± 0.02 | -5.762 ± 0.0311 | -6.319 ± 0.0598 | −23.99 ± 0.10 | competitive inhibitors; also recorded: reversible competitive inhibition | reversible | 34.7 | 93.78 | 54.69 | > 2e+10 | 4.28 ± 0.25 ×10^12 L·mol^−1·s^−1 | 1.2 ± 0.02 | -8.098 ± 0.0717 | – |
| COc1cc(/C=C/C(O)=C/C(=O)/C=C/c2ccc(O)cc2)ccc1O [demethoxycurcumin, Demethoxycurcumin] | 16.5 | 26.4 | 16.9 | 33.46 | > 10000 | ~1 | 1.64 ± 0.13 ×10^12 L·mol^−1·s^−1 | 1.12 ± 0.04 | -5.564 ± 0.0335 | -6.09 ± 0.0502 | −18.82 ± 0.09 | competitive inhibitors; also recorded: reversible competitive inhibition | reversible | 40.2 | 49.15 | 49.33 | > 2e+10 | 3.61 ± 0.24 ×10^12 L·mol^−1·s^−1 | 1.40 ± 0.01 | -7.483 ± 0.0526 | IC50 [6]: 3310 µM; maximum emission peak of pancreatic lipase after addition (blueshift from 350 nm) (pancreatic lipase [2]; excitation 280 nm): 342 nm; Ki (pancreatic lipase [3]; pancreatic lipase 5 mg/mL, p-nitrophenyl butyrate substrate, read-out: Ki (inhibition constant)): 840 ± 40 µM |
